Results: ChEMBL document CHEMBL5303573, “Mapping human microbiome drug metabolism by gut bacteria and their genes” (Nature, 2019)

Experiments:
Assay type in all cases: ADME
Design in all cases: dose 2 uM
Conditions in all cases: 2 µM
Nitroreductase = target: T1, Nitroreductase (Bacteroides thetaiotaomicron, UniProt Q8A911); experiment: (§1) The drug is tested on Bacteroides thetaiotaomicron strain: VPI-5482 for biotransformation. The drug concentrations were measured before and after a 12-h incubation by liquid-chromatography-coupled mass spectrometry (LC–MS)
T1 sequence (Q8A911 whole entry): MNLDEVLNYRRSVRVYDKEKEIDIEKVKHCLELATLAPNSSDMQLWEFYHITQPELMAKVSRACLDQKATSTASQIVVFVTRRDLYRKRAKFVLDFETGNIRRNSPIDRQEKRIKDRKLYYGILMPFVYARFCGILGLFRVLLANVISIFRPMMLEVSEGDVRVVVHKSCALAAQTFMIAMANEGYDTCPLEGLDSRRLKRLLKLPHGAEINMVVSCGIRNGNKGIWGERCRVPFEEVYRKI

Acyltransferase = target: T2, Acyltransferase (Bacteroides thetaiotaomicron, UniProt Q8A575); experiment: as §1
T2 sequence (Q8A575 whole entry): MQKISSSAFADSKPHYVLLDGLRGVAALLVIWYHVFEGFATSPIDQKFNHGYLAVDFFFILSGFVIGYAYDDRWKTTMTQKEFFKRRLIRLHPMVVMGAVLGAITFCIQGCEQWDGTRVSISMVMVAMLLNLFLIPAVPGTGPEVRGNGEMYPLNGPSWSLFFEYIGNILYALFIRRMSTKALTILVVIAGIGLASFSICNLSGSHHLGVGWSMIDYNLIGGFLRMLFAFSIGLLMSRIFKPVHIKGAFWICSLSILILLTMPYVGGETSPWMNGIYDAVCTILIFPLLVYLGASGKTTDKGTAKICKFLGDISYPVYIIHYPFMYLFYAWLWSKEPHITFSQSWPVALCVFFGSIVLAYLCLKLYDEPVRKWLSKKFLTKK

[1] = target: T3, Lipolytic enzyme, G-D-S-L family (Bacteroides thetaiotaomicron, UniProt Q8A0C5); experiment: as §1
T3 sequence (Q8A0C5 whole entry): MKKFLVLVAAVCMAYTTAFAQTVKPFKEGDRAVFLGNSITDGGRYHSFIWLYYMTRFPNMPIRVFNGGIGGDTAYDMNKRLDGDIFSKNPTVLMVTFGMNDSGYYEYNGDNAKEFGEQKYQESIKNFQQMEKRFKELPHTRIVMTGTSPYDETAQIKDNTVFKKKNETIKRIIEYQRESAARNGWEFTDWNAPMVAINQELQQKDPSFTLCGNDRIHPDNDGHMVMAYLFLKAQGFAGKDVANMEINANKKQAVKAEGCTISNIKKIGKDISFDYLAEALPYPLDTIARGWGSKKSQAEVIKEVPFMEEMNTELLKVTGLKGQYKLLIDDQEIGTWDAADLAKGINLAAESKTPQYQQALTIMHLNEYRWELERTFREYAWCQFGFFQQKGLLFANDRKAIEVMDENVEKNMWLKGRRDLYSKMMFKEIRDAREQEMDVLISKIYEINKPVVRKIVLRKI

[2] = target: T4, Sialic acid-specific acetylesterase (Bacteroides thetaiotaomicron, UniProt Q8A331); experiment: as §1
T4 sequence (Q8A331 whole entry): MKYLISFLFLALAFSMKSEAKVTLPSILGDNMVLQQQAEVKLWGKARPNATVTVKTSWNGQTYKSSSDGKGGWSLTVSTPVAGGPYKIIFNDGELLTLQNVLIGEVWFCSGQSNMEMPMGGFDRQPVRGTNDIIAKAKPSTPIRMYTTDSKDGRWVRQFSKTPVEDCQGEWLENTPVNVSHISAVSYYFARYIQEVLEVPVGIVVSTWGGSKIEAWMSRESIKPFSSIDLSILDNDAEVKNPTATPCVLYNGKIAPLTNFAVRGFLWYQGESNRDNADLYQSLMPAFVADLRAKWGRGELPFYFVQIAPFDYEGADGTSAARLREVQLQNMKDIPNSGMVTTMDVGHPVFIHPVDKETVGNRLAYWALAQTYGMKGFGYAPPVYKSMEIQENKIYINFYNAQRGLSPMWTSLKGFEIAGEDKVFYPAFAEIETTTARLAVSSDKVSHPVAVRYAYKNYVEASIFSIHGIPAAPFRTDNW

[3] = target: T5, Sialic acid-specific 9-O-acetylesterase (Bacteroides thetaiotaomicron, UniProt Q8A0D0); experiment: as §1
T5 sequence (Q8A0D0 whole entry): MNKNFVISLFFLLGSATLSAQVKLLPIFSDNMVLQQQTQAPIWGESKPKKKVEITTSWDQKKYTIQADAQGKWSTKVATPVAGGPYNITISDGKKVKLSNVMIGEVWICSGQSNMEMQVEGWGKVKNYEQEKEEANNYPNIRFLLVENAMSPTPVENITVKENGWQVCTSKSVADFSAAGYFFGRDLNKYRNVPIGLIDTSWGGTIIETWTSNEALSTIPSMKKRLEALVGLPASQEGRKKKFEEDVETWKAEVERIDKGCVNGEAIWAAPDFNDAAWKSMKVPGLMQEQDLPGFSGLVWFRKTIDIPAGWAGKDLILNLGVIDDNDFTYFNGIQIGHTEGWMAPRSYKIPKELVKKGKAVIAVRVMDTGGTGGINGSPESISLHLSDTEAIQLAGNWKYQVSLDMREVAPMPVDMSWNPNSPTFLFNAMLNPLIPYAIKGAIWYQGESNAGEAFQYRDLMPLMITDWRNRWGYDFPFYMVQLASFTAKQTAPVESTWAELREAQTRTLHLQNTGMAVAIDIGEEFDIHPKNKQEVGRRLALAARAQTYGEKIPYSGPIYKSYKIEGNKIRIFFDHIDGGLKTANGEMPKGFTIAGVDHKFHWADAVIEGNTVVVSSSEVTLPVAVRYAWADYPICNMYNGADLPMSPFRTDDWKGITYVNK

[4] = target: T6, NADH dehydrogenase/NAD(P)H nitroreductase (Bacteroides thetaiotaomicron, UniProt Q8A8L9); experiment: as §1
T6 sequence (Q8A8L9 whole entry): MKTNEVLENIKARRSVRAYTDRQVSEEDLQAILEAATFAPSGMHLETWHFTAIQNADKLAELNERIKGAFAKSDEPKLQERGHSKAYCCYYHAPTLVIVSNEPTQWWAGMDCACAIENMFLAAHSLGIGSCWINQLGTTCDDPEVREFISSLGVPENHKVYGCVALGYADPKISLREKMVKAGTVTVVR

Lipoprotein = target: T7, Lipoprotein (Bacteroides thetaiotaomicron, UniProt Q8A343); experiment: as §1
T7 sequence (Q8A343 whole entry): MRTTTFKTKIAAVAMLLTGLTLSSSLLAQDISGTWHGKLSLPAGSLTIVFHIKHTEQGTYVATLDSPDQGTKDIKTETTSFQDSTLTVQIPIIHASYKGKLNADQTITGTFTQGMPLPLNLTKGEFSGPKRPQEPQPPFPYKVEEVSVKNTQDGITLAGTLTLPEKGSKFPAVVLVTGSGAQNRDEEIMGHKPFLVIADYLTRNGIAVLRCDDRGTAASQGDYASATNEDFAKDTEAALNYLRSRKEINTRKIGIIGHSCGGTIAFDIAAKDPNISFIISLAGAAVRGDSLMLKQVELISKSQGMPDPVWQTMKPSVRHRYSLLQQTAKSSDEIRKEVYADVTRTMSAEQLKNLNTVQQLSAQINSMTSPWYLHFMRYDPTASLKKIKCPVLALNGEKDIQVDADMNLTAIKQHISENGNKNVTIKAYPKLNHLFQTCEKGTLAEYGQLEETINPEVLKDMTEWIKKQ

Measured: Bacterial Biotransformation

C[C@]12CCC(=O)C=C1[C@@H]1C[C@@H]1[C@H]1[C@@H]3[C@@H]4C[C@@H]4[C@@]4(CCC(=O)O4)[C@@]3(C)CC[C@@H]12 [DROSPIRENONE]
Compound NOT metabolized: all assays above
